Where a name gives a salt, the structure may show the parent alone.
How the values were obtained:
[1] = Body and kidney weights and clinical condition, UUO model; type: in vivo; conditions: for Contralateral kidney weight / Final body weight / Obstructed kidney weight: UUO model, average±SEM
Experimental: Male CD-1 mice (n = 51; 7–8 weeks of age; Charles River Laboratories, USA) were allocated to weight-matched treatment groups on Day -1 (1 day prior to either sham [one group] or permanent right UUO surgery [five groups] via aseptic laparotomy). From Days -1 to 4, mice received phosphate-buffered saline (PBS) IP QD, apart from a positive-control group, which received 1D11 (anti-TGF-beta1 antibody) 3 mg/kg IP QD. From Days 0 to 5, mice received vehicle control (sham surgery, UUO-control and UUO+positive-control groups) or CVC 7 mg/kg/day (CVC7), CVC20 or CVC100 PO BID (S1 Table). […] Study endpoints included: body and kidney weights, mRNA expression (TGF-beta, connective tissue growth factor, MCP-1, alpha-SMA, collagen 1a1, fibronectin-1 and collagen 3a1), extracellular matrix protein in renal cortical tissue (hydroxyproline content) and histological analyses. Blood and tissue samples were collected from anesthetized mice 4 hours post-dose on Day 5, prior to sacrifice. A mid-transverse section of the right obstructed kidney was collected for histological analysis.
(§1) Body weight (measured before and during treatment) and sacrificed animal body and liver/kidney/spleen weights were recorded.

CCR5 = conditions: cited from earlier work
[2] = Body and liver weights, NASH model; type: in vivo, mouse; conditions: mean±SD
Experimental: NASH was induced in male C57BL/6 mice (Charles River Laboratories, Japan) via subcutaneous injection of 200 μg of streptozotocin 2 days post-birth (causing mild islet inflammation and islet destruction) plus a high-fat diet (57 kcal% fat) from 4 weeks of age (sequentially causing fatty changes to the liver, NASH and fibrosis). From Weeks 6 to 9, three groups (n = 9/group) received vehicle control, CVC20 or CVC100 BID PO (S1 Table). At Week 9, six animals per group were sacrificed for assessment of liver fibrosis and Non-Alcoholic Fatty Liver Disease (NAFLD) Activity Score (NAS). The animals were sacrificed by exsanguination through direct cardiac puncture under ether anesthesia. Study endpoints included: body and liver weights, plasma biochemistry (e.g. ALT and CCL2), extracellular matrix protein in liver tissue (hydroxyproline content), mRNA expression (collagen type 1, tumor necrosis factor-alpha, MCP-1, TIMP1) and histopathological analyses. Blood samples were collected and plasma samples derived for biochemistry assessments. Sections were cut from paraffin blocks of liver tissue, prefixed in Bouin’s solution and stained with H&E for histological examination.
as §1

[3] = test system: UUO-induced renal fibrosis; experiment: Mouse model of UUO-induced renal fibrosis; type: in vivo; conditions: for Reduction of UUO-induced increase in Collagen Volume Fraction (±SEM) vs UUO control: p < 0.05
Experimental: Unilateral ureter obstruction is a commonly used experimental model of kidney injury, in which interstitial inflammation, tubular cell injury/death and fibrosis, ensue. The protocol was approved by Plato BioPharma, Inc. IACUC (PBI; approval number 2013–04). The care and use of animals was conducted in accordance with the NIH Guide for the Care and Use of Laboratory Animals (2010), […] Guidelines on Euthanasia (2007), Office of Laboratory Animal Welfare Institutional Animal Care and Use Committee Guidebook (2002), Public Health Service Policy on Humane Care and Use of Laboratory Animals (2002), PBI standard operating procedures on a) moribund sacrifice, b) vivarium maintenance and animal care, and c) animal handling and dosing. Anesthesia was performed by isoflurane […]; animals were euthanized by diaphragm laceration followed by heart laceration while under isoflurane anesthesia.
Male CD-1 mice (n = 51; 7–8 weeks of age; Charles River Laboratories, USA) were allocated to weight-matched treatment groups on Day -1 (1 day prior to either sham [one group] or permanent right UUO surgery [five groups] via aseptic laparotomy). From Days -1 to 4, mice received phosphate-buffered saline (PBS) IP QD, apart from a positive-control group, which received 1D11 (anti-TGF-beta1 antibody) 3 mg/kg IP QD. From Days 0 to 5, mice received vehicle control (sham surgery, UUO-control and UUO+positive-control groups) or CVC 7 mg/kg/day (CVC7), CVC20 or CVC100 PO BID (S1 Table). The CVC100 group was terminated due to poor clinical condition (6/9 animals died and 3/9 euthanized prior to end of study). […]
In the UUO model, ten images/depth/kidney were assessed in a blinded fashion using Axio Imager.A2 (Zeiss, USA) light microscopy (at 200x magnification to enable 60–70% sampling of renal cortical area) and quantified by a composite Collagen Volume Fraction (CVF [% total area imaged]) score expressed as the average positive stain across three anatomically distinct ([…] apart) tissue sections, or depths, from the obstructed kidney.
In the UUO model, frozen renal cortical tissue biopsies were hydrolyzed and centrifuged, and the supernatant was analyzed by OD absorbance at 560 nm on a SpectraMax® 190 (Molecular Devices, USA). Standard curves for conversion of ODs to concentrations were generated using linear regression and sample concentrations were determined using SoftMax® Pro5 software (Molecular Devices, USA).
In the UUO model, mRNA expression levels in renal cortical tissue were evaluated using the QuantiGene® Plex 2.0 profiling platform (Affymetrix, USA). […]
In the UUO model, data are expressed as mean ±SEM. […]

[4] = test system: hepatic fibrosis scores (APRI, FIB-4, ELF); conditions: cited from earlier work
[5] = CVC100 PO BID, UUO surgery, group terminated due to poor clinical condition
[6] = between Baseline and Week 24, maintained at Week 48

In the case of CCCCOCCOc1ccc(-c2ccc3c(c2)/C=C(/C(=O)Nc2ccc([S@@+]([O-])Cc4cncn4CCC)cc2)CCCN3CC(C)C)cc1 [CVC, cenicriviroc mesylate], the “Decrease in body weight vs UUO control” value ([1]; CVC20, Day 5, p < 0.05) is reported as 5%, the “Animals died prior to end of study” value [1, 5] is reported as 6/9 and the “Animals euthanized prior to end of study” value [1, 5] is reported as 3/9. It also gave a Contralateral kidney weight ([1]; CVC 7 mg/kg/day) of 221.0 ± 10.1 mg, a Final body weight ([1]; CVC 7 mg/kg/day) of 26.3 ± 0.5 g and an Obstructed kidney weight ([1]; CVC 7 mg/kg/day) of 232.0 ± 11.9 mg. The Contralateral kidney weight ([1]; CVC 20 mg/kg/day) was 202.4 ± 6.1 mg, the Final body weight ([1]; CVC 20 mg/kg/day) was 25.7 ± 0.4 g and the Obstructed kidney weight ([1]; CVC 20 mg/kg/day) was 217.0 ± 6.7 mg. For the same compound, the “Occupancy for CCR5 (spleen) in proinflammatory monocytes” value (CCR5; CVC 250 nM, murine cryopreserved PBMC ex vivo) was 87%, the CCR5 occupancy (CCR5; CVC concentrations of 250 nmol/L or higher, mouse monocytes and macrophages ex vivo) was greater than 87% and the Final body weight ([2]; CVC 20 mg/kg/day) was 19.5 ± 2.0 g. The Liver weight ([2]; CVC 20 mg/kg/day) was 1334 ± 99 mg, the Liver-to-body weight ratio ([2]; CVC 20 mg/kg/day) was 6.9±1.0% and the Final body weight ([2]; CVC 100 mg/kg/day) was 18.7 ± 0.9 g. For the same compound, the Liver weight ([2]; CVC 100 mg/kg/day) was 1307 ± 119 mg, the Liver-to-body weight ratio ([2]; CVC 100 mg/kg/day) was 7.0±0.8% and the “Effect on UUO-induced increase in obstructed kidney hydroxyproline content” value ([3]; CVC7, CVC20 PO BID) was “did not affect”. The “Reduction of UUO-induced increase in Collagen Volume Fraction (±SEM) vs UUO control” value ([3]; CVC7 PO BID Days 0-5) was 28.6%±8.8, the “Inhibition of UUO-induced increases in obstructed renal cortical mRNA expression of fibrogenic genes” value ([3]; CVC7 and CVC20, trend, relative to UUO control) was “did not reach statistical significance” and the “Reduction of UUO-induced increase in Collagen Volume Fraction (±SEM) vs UUO control” value ([3]; CVC20 PO BID Days 0-5, single outlier removed) was 31.8%±6.8. For the same compound, the “Enhanced liver fibrosis (ELF) scores” value ([4]; Week 48, p < 0.0001) was “significant reduction”, the “Decrease in proportion of subjects with APRI score ≥0.5” value [4, 6] was 75% and the “Decrease in proportion of subjects with FIB-4 score ≥1.45” value [4, 6] was 73%.

From article PMC4922569, “Antifibrotic Effects of the Dual CCR2/CCR5 Antagonist Cenicriviroc in Animal Models of Liver and Kidney Fibrosis” (PLoS ONE, 2016)
